Values after ≈ are worked out from the molar mass of the structure shown.
Columns and labels:
[1] = tested on: T1, Enterococcus faecalis VRE 725 B; assay: organism not typed; design: broth microdilution MIC in BHI, Alamar Blue read-out, 37 °C; settings: 24 h
T1 construct: VRE 725B (vanA clinical isolate)
Description: The inhibition activity against enterococci was evaluated by the microtitration broth method according to the Clinical and Laboratory Standards Institute with some modifications. The compounds were dissolved in DMSO and serially diluted in Brain Hearth Infusion (BHI) to reach concentrations 256–2 µg/mL. […] The experiment was repeated at least three times. All the investigated compounds were tested on their anti-staphylococcal activity against three clinical isolates of methicillin-resistant Staphylococcus aureus (MRSA) and S. aureus ATCC 29213 as the reference and quality control strain. […] All the compounds were tested against Enterococcus faecalis ATCC 29212 as the reference strain and three isolates from American crows of vanA-carrying vancomycin-resistant E. faecalis (VRE), and the activities, expressed as minimum inhibitory concentrations (MICs), are listed in Table 3.

hCA XII = target: T2, hCA XII (Homo sapiens, UniProt O43570); assay: stopped-flow CO2 hydration assay; type: biochemical
T2 construct: gene CA12; recombinant
How it was run: (§1)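 Ki was derived by non-linear least squares using the Cheng–Prusoff equation. The underlying data were initial rates of CO2 hydration by recombinant human carbonic anhydrase, measured by stopped-flow for 10–100 s with 0.2 mM phenol red (557 nm), 20 mM Hepes pH 7.5, 20 mM Na2SO4 and 1.7–17 mM CO2, after a 15 min room-temperature preincubation of enzyme with inhibitor. Uncatalysed rates were subtracted, at least six traces were used per rate, and values were averaged over three or more determinations.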

[2] = tested on: T3, E. faecalis ATCC 29212 (EF); assay: microbe, parasite or virus in culture; design: broth microdilution MIC in BHI, Alamar Blue read-out, 37 °C; settings: Enterococcus faecalis, ATCC29212, 24 h
T3 construct: ATCC 29212
Description: (§2) The inhibition activity against enterococci was evaluated by the microtitration broth method according to the Clinical and Laboratory Standards Institute with some modifications. The compounds were dissolved in DMSO and serially diluted in Brain Hearth Infusion (BHI) to reach concentrations 256–2 µg/mL. […] The experiment was repeated at least three times. All the investigated compounds were tested on their anti-staphylococcal activity against three clinical isolates of methicillin-resistant Staphylococcus aureus (MRSA) and S. aureus ATCC 29213 as the reference and quality control strain.

hCA IX = target: T4, hCA IX (Homo sapiens, UniProt Q16790); assay: stopped-flow CO2 hydration assay; type: biochemical
T4 construct: gene CA9; recombinant
How it was run: as §1

[3] = tested on: T5, Enterococcus faecalis VRE 342 B; assay: organism not typed; design: broth microdilution MIC in BHI, Alamar Blue read-out, 37 °C; settings: 24 h
T5 construct: VRE 342 B (vanA clinical isolate)
Description: as §2

[4] = tested on: T6, Enterococcus faecalis VRE 368; assay: organism not typed; design: broth microdilution MIC in BHI, Alamar Blue read-out, 37 °C; settings: 24 h
T6 construct: VRE 368 (vanA clinical isolate)
Description: as §2

hCA I = target: T7, hCA I (Homo sapiens, UniProt P00915); assay: stopped-flow CO2 hydration assay; type: biochemical
T7 construct: gene CA1; recombinant
How it was run: as §1

hCA II = target: T8, hCA II (Homo sapiens, UniProt P00918); assay: stopped-flow CO2 hydration assay; type: biochemical
T8 construct: gene CA2; recombinant
How it was run: as §1

hCA VII = target: T9, hCA VII (Homo sapiens, UniProt P43166); assay: stopped-flow CO2 hydration assay; type: biochemical
T9 construct: gene CA7; recombinant
How it was run: as §1

T2 sequence (O43570 25-354): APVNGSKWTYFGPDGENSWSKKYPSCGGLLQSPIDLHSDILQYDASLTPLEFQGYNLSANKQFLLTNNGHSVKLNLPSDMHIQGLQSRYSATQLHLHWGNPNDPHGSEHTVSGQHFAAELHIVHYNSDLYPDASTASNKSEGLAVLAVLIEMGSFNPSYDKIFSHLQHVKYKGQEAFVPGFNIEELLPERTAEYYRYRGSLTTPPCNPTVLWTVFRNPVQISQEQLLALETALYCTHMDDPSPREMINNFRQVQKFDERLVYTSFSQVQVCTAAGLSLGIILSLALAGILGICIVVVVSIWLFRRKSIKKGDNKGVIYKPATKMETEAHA
T9 sequence (P43166 whole entry): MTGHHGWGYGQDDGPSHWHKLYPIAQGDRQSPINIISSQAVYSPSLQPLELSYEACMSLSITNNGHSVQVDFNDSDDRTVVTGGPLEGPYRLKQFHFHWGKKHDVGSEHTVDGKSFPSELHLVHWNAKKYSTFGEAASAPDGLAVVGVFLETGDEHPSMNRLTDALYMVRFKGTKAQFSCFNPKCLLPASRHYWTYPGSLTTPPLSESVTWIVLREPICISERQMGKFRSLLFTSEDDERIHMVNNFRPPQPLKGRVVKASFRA
T7 sequence (P00915 2-261): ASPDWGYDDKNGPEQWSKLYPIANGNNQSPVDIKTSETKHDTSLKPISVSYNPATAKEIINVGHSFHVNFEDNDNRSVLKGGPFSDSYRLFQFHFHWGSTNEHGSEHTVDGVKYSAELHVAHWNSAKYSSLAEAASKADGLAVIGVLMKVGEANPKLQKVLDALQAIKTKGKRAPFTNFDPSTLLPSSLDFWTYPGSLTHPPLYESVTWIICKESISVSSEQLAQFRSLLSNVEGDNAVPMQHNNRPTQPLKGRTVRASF

SMILES | MIC [1] | Ki (hCA XII) | MIC [2] | Ki (hCA IX) | MIC [3] | MIC [4] | Ki (hCA I) | Ki (hCA II) | Ki (hCA VII) | MIC [µM] / VRE 725 B ([1]; inhibitor)
NS(=O)(=O)c1ccc(CCNc2nc(Nc3ccc(O)cc3)nc(Nc3ccc(/C=C/c4ccccc4)cc3)n2)cc1 [compound 32, (E)-4-{2-[(4-[(4-Hydroxyphenyl)amino]-6-[(4-styrylphenyl)amino]-1,3,5-triazin-2-yl)amino]ethyl}benzenesulfonamide] | 55.2 µM (≈ 32 µg/mL) | 5.9 nM | 13.8 µM (≈ 8 µg/mL) | 2470 nM | 27.6 µM (≈ 16 µg/mL) | 27.6 µM (≈ 16 µg/mL) | 90.6 nM | 7490 nM |  | 
NS(=O)(=O)c1ccc(CCNc2nc(NCCCO)nc(Nc3ccc(/C=C/c4cccc(O)c4)cc3)n2)cc1 [compound 37, 37] | > 455 µM | 601 nM | > 455 µM | 26.4 nM | > 455 µM | > 455 µM | 675 nM | 73.5 nM |  | 
NS(=O)(=O)c1ccc(Nc2nc(NCCCO)nc(Nc3ccc(/C=C/c4cccc(O)c4)cc3)n2)cc1 [compound 4, (E)-4-({4-[(3-Hydroxypropyl)amino]-6-{[4-(3-hydroxystyryl)phenyl]amino}-1,3,5-triazin-2-yl}amino)benzenesulfonamide] |  | 65.8 nM |  | 27.5 nM |  |  | 7520 nM | 3640 nM |  | 
NS(=O)(=O)c1ccc(CCNc2nc(NCCCO)nc(Nc3ccc(/C=C/c4ccccc4)cc3)n2)cc1 [compound 30, (E)-4-[2-({4-[(3-Hydroxypropyl)amino]-6-[(4-styrylphenyl)amino]-1,3,5-triazin-2-yl}amino)ethyl]benzenesulfonamide] | > 469 µM | 7.6 nM | > 469 µM | 12.1 nM | > 469 µM | > 469 µM | 5700 nM | 5130 nM |  | 
NS(=O)(=O)c1ccc(CNc2nc(Cl)nc(NCCCO)n2)cc1 [compound 5, 5] |  |  |  |  |  |  |  |  | 332 nM | 
CN[C@H](CC(C)C)C(=O)N[C@H]1C(=O)N[C@@H](CC(N)=O)C(=O)N[C@H]2C(=O)N[C@H]3C(=O)N[C@H](C(=O)N[C@H](C(=O)O)c4cc(O)cc(O)c4-c4cc3ccc4O)[C@H](O)c3ccc(c(Cl)c3)Oc3cc2cc(c3O[C@@H]2O[C@H](CO)[C@@H](O)[C@H](O)[C@H]2O[C@H]2C[C@](C)(N)[C@H](O)[C@H](C)O2)Oc2ccc(cc2Cl)[C@H]1O [vancomycin] | 706 µM (≈ 1020 µg/mL) |  |  |  | 353 µM (≈ 512 µg/mL) | 353 µM (≈ 512 µg/mL) |  |  |  | 
NS(=O)(=O)c1ccc(CCNc2nc(NCC(O)CO)nc(Nc3ccc(/C=C/c4cccc(O)c4)cc3)n2)cc1 (centres unmarked) [compound 38, (E)-4-{2-[(4-[(2,3-Dihydroxypropyl)amino]-6-{[4-(3-hydroxystyryl)phenyl]amino}-1,3,5-triazin-2-yl)amino]ethyl}benzenesulfonamide] | > 443 µM | 84.5 nM | > 443 µM | 17.3 nM | > 443 µM | > 443 µM | 6730 nM | 4440 nM |  | 
NS(=O)(=O)c1ccc(CCNc2nc(Nc3ccc(O)cc3)nc(Nc3ccc(/C=C/c4cccc(O)c4)cc3)n2)cc1 [compound 39, 39] | > 429 µM | 68.5 nM | > 429 µM | 876 nM | > 429 µM | > 429 µM | 742 nM | 154 nM |  | 
NS(=O)(=O)c1ccc(CCNc2nc(NCc3ccc(S(N)(=O)=O)cc3)nc(Nc3ccc(/C=C/c4ccccc4O)cc3)n2)cc1 [compound 36, (E)-4-{2-[(4-{[4-(2-Hydroxystyryl)phenyl]amino}-6-[(4-sulfamoylbenzyl)amino]-1,3,5-triazin-2-yl)amino]ethyl}benzenesulfonamide] | > 380 µM | 8.3 nM | > 380 µM | 2720 nM | > 380 µM | > 380 µM | 448 nM | 82 nM |  | 
NS(=O)(=O)c1ccc(CCNc2nc(Cl)nc(NCCCO)n2)cc1 [compound 18, 18] | 661 µM (≈ 256 µg/mL) |  | 330 µM (≈ 128 µg/mL) |  | 330 µM (≈ 128 µg/mL) | 661 µM (≈ 256 µg/mL) |  |  | 75.7 nM | 
CC1(C)S[C@@H]2[C@H](NC(=O)[C@H](N)c3ccccc3)C(=O)N2[C@H]1C(=O)O [ampicillin] |  |  |  |  |  |  |  |  |  | 5.72 µM (≈ 2 µg/mL)
NS(=O)(=O)c1ccc(CCNc2nc(Nc3ccc(O)cc3)nc(Nc3ccc(/C=C/c4ccccc4O)cc3)n2)cc1 [compound 35, 35] | > 429 µM | 37.1 nM | > 429 µM | 238 nM | > 429 µM | > 429 µM | 3940 nM | 5470 nM |  | 
NS(=O)(=O)c1ccc(CCNc2nc(NCC(O)CO)nc(Nc3ccc(/C=C/c4ccccc4O)cc3)n2)cc1 (centres unmarked) [compound 34, (E)-4-{2-[(4-[(2,3-Dihydroxypropyl)amino]-6-{[4-(2-hydroxystyryl)phenyl]amino}-1,3,5-triazin-2-yl)amino]ethyl}benzenesulfonamide] | > 443 µM | 8.5 nM | > 443 µM | 2710 nM | > 443 µM | > 443 µM | 1670 nM | 5630 nM |  | 
NS(=O)(=O)c1ccc(CNc2nc(NCCCO)nc(Nc3ccc(/C=C/c4cccc(O)c4)cc3)n2)cc1 [compound 17, 17] | > 467 µM | 493 nM | > 467 µM | 22.2 nM | > 467 µM | 467 µM (≈ 256 µg/mL) | 358 nM | 46.8 nM |  | 
NS(=O)(=O)c1ccc(CCNc2nc(Cl)nc(NCC(O)CO)n2)cc1 (centres unmarked) [compound 19, 19] | > 635 µM |  | > 635 µM |  | > 635 µM | > 635 µM |  |  | 40.7 nM | 
NS(=O)(=O)c1ccc(CCNc2nc(NCc3ccc(S(N)(=O)=O)cc3)nc(Nc3ccc(/C=C/c4cccc(O)c4)cc3)n2)cc1 [compound 40, (E)-4-{2-[(4-{[4-(3-Hydroxystyryl)phenyl]amino}-6-[(4-sulfamoylbenzyl)amino]-1,3,5-triazin-2-yl)amino]ethyl}benzenesulfonamide] | 190 µM (≈ 128 µg/mL) | 60.5 nM | 190 µM (≈ 128 µg/mL) | 20.3 nM | 190 µM (≈ 128 µg/mL) | 380 µM (≈ 256 µg/mL) | 48.8 nM | 18.9 nM |  | 
NS(=O)(=O)c1ccc(CCNc2nc(NCc3ccc(S(N)(=O)=O)cc3)nc(Nc3ccc(/C=C/c4ccccc4)cc3)n2)cc1 [compound 33] | 194 µM (≈ 127 µg/mL) | 6.2 nM | 97.4 µM (≈ 64 µg/mL) | 1970 nM | 194 µM (≈ 127 µg/mL) | 389 µM (≈ 255 µg/mL) | 48 nM | 57.9 nM |  | 
NS(=O)(=O)c1ccc(CCNc2nc(NCC(O)CO)nc(Nc3ccc(/C=C/c4ccc(O)cc4)cc3)n2)cc1 (centres unmarked) [compound 42, (E)-4-{2-[(4-[(2,3-Dihydroxypropyl)amino]-6-{[4-(4-hydroxystyryl)phenyl]amino}-1,3,5-triazin-2-yl)amino]ethyl}benzenesulfonamide] | 221 µM (≈ 128 µg/mL) | 9.7 nM | 55.4 µM (≈ 32 µg/mL) | 258 nM | 110 µM (≈ 63.5 µg/mL) | 221 µM (≈ 128 µg/mL) | 43.5 nM | 96.3 nM |  | 
NS(=O)(=O)c1ccc(CNc2nc(Cl)nc(NCc3ccc(S(N)(=O)=O)cc3)n2)cc1 [7 ^a] | 131 µM (≈ 63.4 µg/mL) |  | 16.5 µM (≈ 7.98 µg/mL) |  | 66 µM (≈ 31.9 µg/mL) | 33 µM (≈ 16 µg/mL) |  |  |  | 
NS(=O)(=O)c1ccc(Nc2nc(Cl)nc(NCCCO)n2)cc1 [compound 1, 1] |  |  |  | 229 nM |  |  | 26.8 nM | 44.8 nM | 128 nM | 
NS(=O)(=O)c1ccc(CCNc2nc(NCC(O)CO)nc(Nc3ccc(/C=C/c4ccccc4)cc3)n2)cc1 (centres unmarked) [compound 31, (E)-4-{2-[(4-[(2,3-Dihydroxypropyl)amino]-6-[(4-styrylphenyl)amino]-1,3,5-triazin-2-yl)amino]ethyl}benzenesulfonamide] | > 455 µM | 4.4 nM | > 455 µM | 248 nM | > 455 µM | > 455 µM | 36.9 nM | 335 nM |  | 
